From patent US10188634B2, “3-(3H-imidazo[4,5-C]pyridin-2-yl)-1 H-pyrazolo[4,3-B]pyridines and therapeutic uses thereof” (Samumed, LLC, priority 2015, dated 2019)

What was measured:
[1] = test system: Wnt activity (Sp5-Luc reporter, human Sp5 promoter with eight TCF/LEF binding sites) in SW480 colon carcinoma cells; test: Screening assay for Wnt activity: Sp5-Luc reporter gene assay in SW480 cells; type: cell-based; details: for inhibition at 10 µM: read-out: percent inhibition at 10 μM (given for EC50 of >10 μM); for EC50: 10-point dose-response starting from 10 μM, overnight incubation
In short: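 SW480 cells stably carrying Sp5-Luc reporter (eight TCF/LEF sites) plated at 4,000/well in 1% FBS medium with compound (10-point 1:3 series from 10 μM, 0.1% DMSO) overnight at 37 °C. BrightGlo luminescence normalized to DMSO; EC50 by four-parameter fit, else % inhibition at 10 μM.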

IL-6 in THP-1 cells = test: Inhibition of IL-6 in LPS-stimulated THP-1 human monocyte cells (HTRF); type: cell-based; details: IL-6 HTRF; for EC50: 500 ng/mL LPS, 22 hours; for inhibition at 10 µM: LPS, read-out: percent inhibition in brackets (given for EC50 >10 μM)
In short: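 THP-1 cells, serum-reduced (1% FBS) for 24 h, were exposed to compound (1:3, 10-point series from 10 μM; 0.1% DMSO) for 2 h, then 500 ng/mL LPS for 22 h at 37° C. Secreted IL-6 measured by HTRF (665/620 ratio), normalised to DMSO; EC50 by four-parameter fit, else % inhibition at 10 μM.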

SMILES	inhibition at 10 µM [1] [%]	EC50 [1] [µM]	EC50 (IL-6 in THP-1 cells) [µM]	inhibition at 10 µM (IL-6 in THP-1 cells) [%]
NC1CN(c2cncc(-c3ccc4[nH]nc(-c5nc6c(-c7ccc(Cl)s7)cncc6[nH]5)c4n3)n2)C1 [Compound 1023, 1-(6-(3-(7-(5-Chlorothiophen-2-yl)-3H-imidazo[4,5-c]pyridin-2-yl)-1H-pyrazolo[4,3-b]pyridin-5-yl)pyrazin-2-yl)azetidin-3-amine]	24.3	> 10	0.098	
c1cc2c(cc1-c1cncc3[nH]c(-c4n[nH]c5ccc(C6CCNCC6)nc45)nc13)OCO2 [Compound 1063, 3-(7-(Benzo[d][1,3]dioxol-5-yl)-3H-imidazo[4,5-c]pyridin-2-yl)-5-(piperidin-4-yl)-1H-pyrazolo[4,3-b]pyridine]	10.5	> 10	> 10	32.7
C1=C(c2ccc3[nH]nc(-c4nc5c(-c6ccc7c(c6)OCO7)cncc5[nH]4)c3n2)CCNC1 [Compound 1064, 3-(7-(Benzo[d][1,3]dioxol-5-yl)-3H-imidazo[4,5-c]pyridin-2-yl)-5-(1,2,3,6-tetrahydropyridin-4-yl)-1H-pyrazolo[4,3-b]pyridine]	9.5	> 10	> 10	21.1
Cc1ncc(-c2ccc3[nH]nc(-c4nc5c(-c6cccc(F)c6)cncc5[nH]4)c3n2)s1 [Compound 1081, 5-(3-(7-(3-Fluorophenyl)-3H-imidazo[4,5-c]pyridin-2-yl)-1H-pyrazolo[4,3-b]pyridin-5-yl)-2-methylthiazole]	38	> 10	> 10	7.7
Cc1cnc(-c2ccc3[nH]nc(-c4nc5c(-c6cccc(F)c6)cncc5[nH]4)c3n2)s1 [Compound 1082, 2-(3-(7-(3-Fluorophenyl)-3H-imidazo[4,5-c]pyridin-2-yl)-1H-pyrazolo[4,3-b]pyridin-5-yl)-5-methylthiazole]	27	> 10	> 10	14.3
Cn1cc(-c2ccc3[nH]nc(-c4nc5c(-c6ccc(F)cc6)cncc5[nH]4)c3n2)c(CO)n1 [Compound 1084, (4-(3-(7-(4-Fluorophenyl)-3H-imidazo[4,5-c]pyridin-2-yl)-1H-pyrazolo[4,3-b]pyridin-5-yl)-1-methyl-1H-pyrazol-3-yl)methanol]	11.8	> 10	> 10	4.1
Cn1cc(-c2ccc3[nH]nc(-c4nc5c(N6CCCCC6)cncc5[nH]4)c3n2)c(CO)n1 [Compound 1089, (1-Methyl-4-(3-(7-(piperidin-1-yl)-3H-imidazo[4,5-c]pyridin-2-yl)-1H-pyrazolo[4,3-b]pyridin-5-yl)-1H-pyrazol-3-yl)methanol]	24.2	> 10	0.52	
Cn1cc(-c2ccc3[nH]nc(-c4nc5c(-c6ccc7c(c6)OCO7)cncc5[nH]4)c3n2)c(CO)n1 [Compound 1106, (4-(3-(7-(Benzo[d][1,3]dioxol-5-yl)-3H-imidazo[4,5-c]pyridin-2-yl)-1H-pyrazolo[4,3-b]pyridin-5-yl)-1-methyl-1H-pyrazol-3-yl)methanol]	24.7	> 10	> 10	0
